Measured values: article PMC9950205, “Efficacy, safety, and pharmacokinetics of teduglutide in adult Japanese patients with short bowel syndrome and intestinal failure: two phase III studies with an extension” (Surgery Today, 2022)

Tested on: adult Japanese patients with SBS-IF
Experiment: Safety: treatment-emergent adverse events (TEAEs, TESAEs)
Type: in vivo
Text: Safety analyses included the monitoring of adverse events (AEs), body weight, BMI, vital signs, 12-lead electrocardiogram (ECG), serum biochemistry, hematology, and presence of antibodies to teduglutide. AEs were coded using the Medical Dictionary for Regulatory Activities versions 17.1 (TED-C14-004) and 21.0 (SHP633-306 and SHP633-307). Specifically, AEs were treatment-emergent AEs (TEAEs), defined as any unfavorable and unintended sign (including any abnormal laboratory finding), symptom, or disease that occurred during treatment with teduglutide, whether or not the event was considered to be related to the study drug by the clinical study investigator. AEs were also categorized as mild, moderate, or severe. […] AEs were considered related to treatment with teduglutide, or its administration, based on the investigator's medical judgment.

[1] = > 24 weeks (SHP633-307 and TED-C14-004), 0.05 mg/kg/day

CC[C@H](C)[C@H](NC(=O)[C@H](Cc1ccccc1)NC(=O)[C@H](CC(=O)O)NC(=O)[C@H](CCCNC(=N)N)NC(=O)[C@H](C)NC(=O)[C@H](C)NC(=O)[C@H](CC(C)C)NC(=O)[C@H](CC(N)=O)NC(=O)[C@H](CC(=O)O)NC(=O)[C@H](CC(C)C)NC(=O)[C@@H](NC(=O)[C@@H](NC(=O)[C@H](CC(N)=O)NC(=O)[C@H](CCSC)NC(=O)[C@H](CCC(=O)O)NC(=O)[C@H](CC(=O)O)NC(=O)[C@H](CO)NC(=O)[C@H](Cc1ccccc1)NC(=O)[C@H](CO)NC(=O)CNC(=O)[C@H](CC(=O)O)NC(=O)CNC(=O)[C@@H](N)Cc1c[nH]cn1)[C@@H](C)O)[C@@H](C)CC)C(=O)N[C@@H](CC(N)=O)C(=O)N[C@@H](Cc1c[nH]c2ccccc12)C(=O)N[C@@H](CC(C)C)C(=O)N[C@H](C(=O)N[C@@H](CCC(N)=O)C(=O)N[C@H](C(=O)N[C@@H](CCCCN)C(=O)N[C@H](C(=O)N[C@H](C(=O)N[C@@H](CC(=O)O)C(=O)O)[C@@H](C)O)[C@@H](C)CC)[C@@H](C)O)[C@@H](C)CC [teduglutide]
Abdominal distension: Events [1]: 2 n | Abdominal distension: Patients [1]: 2 (13.3) n (%) | Abdominal pain: Events [1]: 1 n | Abdominal pain: Patients [1]: 1 (6.7) n (%) | Anal abscess: Events [1]: 3 n | Anal abscess: Patients [1]: 3 (20.0) n (%) | Anemia: Events [1]: 0 n | Anemia: Patients [1]: 0 n (%) | Any TEAE: Events [1]: 199 n | Any TEAE: Patients [1]: 11 (73.3) n (%) | Arthralgia: Events [1]: 5 n | Arthralgia: Patients [1]: 5 (33.3) n (%) | Back pain: Events [1]: 1 n | Back pain: Patients [1]: 1 (6.7) n (%) | Blood and lymphatic system disorders: Events [1]: 0 n | Blood and lymphatic system disorders: Patients [1]: 0 n (%) | Catheter site infection: Events [1]: 1 n | Catheter site infection: Patients [1]: 1 (6.7) n (%) | Catheter site pain: Events [1]: 4 n | Catheter site pain: Patients [1]: 2 (13.3) n (%) | Dehydration: Events [1]: 2 n | Dehydration: Patients [1]: 2 (13.3) n (%) | Dermatitis contact: Events [1]: 4 n | Dermatitis contact: Patients [1]: 4 (26.7) n (%) | Device occlusion (central venous catheter for PS): Events [1]: 3 n | Device occlusion (central venous catheter for PS): Patients [1]: 2 (13.3) n (%) | Device-related infection (central venous catheter for PS): Events [1]: 24 n | Device-related infection (central venous catheter for PS): Patients [1]: 7 (46.7) n (%) | Diarrhea: Events [1]: 4 n | Diarrhea: Patients [1]: 3 (20.0) n (%) | Dry skin: Events [1]: 1 n | Dry skin: Patients [1]: 1 (6.7) n (%) | Enteritis: Events [1]: 1 n | Enteritis: Patients [1]: 1 (6.7) n (%) | Enterocolitis: Events [1]: 2 n | Enterocolitis: Patients [1]: 2 (13.3) n (%) | Eye disorder: Events [1]: 5 n | Eye disorder: Patients [1]: 1 (6.7) n (%) | Gastrointestinal disorders: Events [1]: 33 n | Gastrointestinal disorders: Patients [1]: 8 (53.3) n (%) | General disorders and administration site conditions: Events [1]: 16 n | General disorders and administration site conditions: Patients [1]: 5 (33.3) n (%) | Headache: Events [1]: 11 n | Headache: Patients [1]: 5 (33.3) n (%) | Hematuria: Events [1]: 2 n | Hematuria: Patients [1]: 2 (13.3) n (%) | Hemorrhage subcutaneous: Events [1]: 2 n | Hemorrhage subcutaneous: Patients [1]: 2 (13.3) n (%) | Hepatobiliary disorders: Events [1]: 2 n | Hepatobiliary disorders: Patients [1]: 2 (13.3) n (%) | Hypersensitivity: Events [1]: 2 n | Hypersensitivity: Patients [1]: 2 (13.3) n (%) | Hypozincemia: Events [1]: 1 n | Hypozincemia: Patients [1]: 1 (6.7) n (%) | Immune system disorders: Events [1]: 2 n | Immune system disorders: Patients [1]: 2 (13.3) n (%) | Infections and infestations: Events [1]: 62 n | Infections and infestations: Patients [1]: 10 (66.7) n (%) | Influenza: Events [1]: 18 n | Influenza: Patients [1]: 5 (33.3) n (%) | Injection site reaction: Events [1]: 0 n | Injection site reaction: Patients [1]: 0 n (%) | Injury, poisoning, and procedural complications: Events [1]: 1 n | Injury, poisoning, and procedural complications: Patients [1]: 1 (6.7) n (%) | Insomnia: Events [1]: 2 n | Insomnia: Patients [1]: 2 (13.3) n (%) | Investigations: Events [1]: 5 n | Investigations: Patients [1]: 2 (13.3) n (%) | Metabolism and nutrition disorders: Events [1]: 7 n | Metabolism and nutrition disorders: Patients [1]: 5 (33.3) n (%) | Musculoskeletal and connective tissue disorders: Events [1]: 10 n | Musculoskeletal and connective tissue disorders: Patients [1]: 6 (40.0) n (%) | Nasopharyngitis: Events [1]: 18 n | Nasopharyngitis: Patients [1]: 5 (33.3) n (%) | Nausea: Events [1]: 7 n | Nausea: Patients [1]: 3 (20.0) n (%) | Nervous system disorders: Events [1]: 19 n | Nervous system disorders: Patients [1]: 7 (46.7) n (%) | Oropharyngeal pain: Events [1]: 3 n | Oropharyngeal pain: Patients [1]: 3 (20.0) n (%) | Pruritus: Events [1]: 1 n | Pruritus: Patients [1]: 1 (6.7) n (%) | Psychiatric disorders: Events [1]: 4 n | Psychiatric disorders: Patients [1]: 3 (20.0) n (%) | Pyrexia: Events [1]: 5 n | Pyrexia: Patients [1]: 4 (26.7) n (%) | Renal and urinary disorders: Events [1]: 4 n | Renal and urinary disorders: Patients [1]: 3 (20.0) n (%) | Respiratory, thoracic, and mediastinal disorders: Events [1]: 8 n | Respiratory, thoracic, and mediastinal disorders: Patients [1]: 3 (20.0) n (%) | Skin and subcutaneous tissue disorders: Events [1]: 13 n | Skin and subcutaneous tissue disorders: Patients [1]: 7 (46.7) n (%) | Somnolence: Events [1]: 3 n | Somnolence: Patients [1]: 3 (20.0) n (%) | Stomatitis: Events [1]: 3 n | Stomatitis: Patients [1]: 3 (20.0) n (%) | Upper respiratory tract inflammation: Events [1]: 1 n | Upper respiratory tract inflammation: Patients [1]: 1 (6.7) n (%) | Vascular disorders: Events [1]: 4 n | Vascular disorders: Patients [1]: 3 (20.0) n (%) | Vascular pain: Events [1]: 3 n | Vascular pain: Patients [1]: 2 (13.3) n (%) | Vomiting: Events [1]: 1 n | Vomiting: Patients [1]: 1 (6.7) n (%) | TESAEs considered to be related to teduglutide (SHP633-306 or SHP633-307): No TESAEs | Deaths during the study (TED-C14-004, one patient, acute hepatic and renal failure 52 days after teduglutide discontinuation): only death | Abdominal distension: Events (Total, 0.05 mg/kg/day): 6 n | Abdominal distension: Patients (Total, 0.05 mg/kg/day): 6 (33.3) n (%) | Abdominal pain: Events (Total, 0.05 mg/kg/day): 6 n | Abdominal pain: Patients (Total, 0.05 mg/kg/day): 5 (27.8) n (%) | Anal abscess: Events (Total, 0.05 mg/kg/day): 3 n | Anal abscess: Patients (Total, 0.05 mg/kg/day): 3 (16.7) n (%) | Anemia: Events (Total, 0.05 mg/kg/day): 2 n | Anemia: Patients (Total, 0.05 mg/kg/day): 2 (11.1) n (%) | Any TEAE: Events (Total, 0.05 mg/kg/day): 320 n | Any TEAE: Patients (Total, 0.05 mg/kg/day): 18 (100.0) n (%) | Arthralgia: Events (Total, 0.05 mg/kg/day): 5 n | Arthralgia: Patients (Total, 0.05 mg/kg/day): 5 (27.8) n (%) | Back pain: Events (Total, 0.05 mg/kg/day): 2 n | Back pain: Patients (Total, 0.05 mg/kg/day): 2 (11.1) n (%) | Blood and lymphatic system disorders: Events (Total, 0.05 mg/kg/day): 4 n | Blood and lymphatic system disorders: Patients (Total, 0.05 mg/kg/day): 3 (16.7) n (%) | Catheter site infection: Events (Total, 0.05 mg/kg/day): 2 n | Catheter site infection: Patients (Total, 0.05 mg/kg/day): 2 (11.1) n (%) | Catheter site pain: Events (Total, 0.05 mg/kg/day): 5 n | Catheter site pain: Patients (Total, 0.05 mg/kg/day): 2 (11.1) n (%) | Dehydration: Events (Total, 0.05 mg/kg/day): 4 n | Dehydration: Patients (Total, 0.05 mg/kg/day): 2 (11.1) n (%) | Dermatitis contact: Events (Total, 0.05 mg/kg/day): 4 n | Dermatitis contact: Patients (Total, 0.05 mg/kg/day): 4 (22.2) n (%) | Device occlusion (central venous catheter for PS): Events (Total, 0.05 mg/kg/day): 6 n | Device occlusion (central venous catheter for PS): Patients (Total, 0.05 mg/kg/day): 3 (16.7) n (%) | Device-related infection (central venous catheter for PS): Events (Total, 0.05 mg/kg/day): 33 n | Device-related infection (central venous catheter for PS): Patients (Total, 0.05 mg/kg/day): 10 (55.6) n (%) | Diarrhea: Events (Total, 0.05 mg/kg/day): 5 n | Diarrhea: Patients (Total, 0.05 mg/kg/day): 4 (22.2) n (%) | Dry skin: Events (Total, 0.05 mg/kg/day): 2 n | Dry skin: Patients (Total, 0.05 mg/kg/day): 2 (11.1) n (%) | Enteritis: Events (Total, 0.05 mg/kg/day): 2 n | Enteritis: Patients (Total, 0.05 mg/kg/day): 2 (11.1) n (%) | Enterocolitis: Events (Total, 0.05 mg/kg/day): 4 n | Enterocolitis: Patients (Total, 0.05 mg/kg/day): 3 (16.7) n (%) | Eye disorder: Events (Total, 0.05 mg/kg/day): 7 n | Eye disorder: Patients (Total, 0.05 mg/kg/day): 3 (16.7) n (%) | Gastrointestinal disorders: Events (Total, 0.05 mg/kg/day): 60 n | Gastrointestinal disorders: Patients (Total, 0.05 mg/kg/day): 15 (83.3) n (%) | General disorders and administration site conditions: Events (Total, 0.05 mg/kg/day): 37 n | General disorders and administration site conditions: Patients (Total, 0.05 mg/kg/day): 10 (55.6) n (%) | Headache: Events (Total, 0.05 mg/kg/day): 14 n | Headache: Patients (Total, 0.05 mg/kg/day): 7 (38.9) n (%) | Hematuria: Events (Total, 0.05 mg/kg/day): 3 n | Hematuria: Patients (Total, 0.05 mg/kg/day): 3 (16.7) n (%) | Hemorrhage subcutaneous: Events (Total, 0.05 mg/kg/day): 3 n | Hemorrhage subcutaneous: Patients (Total, 0.05 mg/kg/day): 2 (11.1) n (%) | Hepatobiliary disorders: Events (Total, 0.05 mg/kg/day): 5 n | Hepatobiliary disorders: Patients (Total, 0.05 mg/kg/day): 4 (22.2) n (%) | Hypersensitivity: Events (Total, 0.05 mg/kg/day): 2 n | Hypersensitivity: Patients (Total, 0.05 mg/kg/day): 2 (11.1) n (%) | Hypozincemia: Events (Total, 0.05 mg/kg/day): 2 n | Hypozincemia: Patients (Total, 0.05 mg/kg/day): 2 (11.1) n (%)
